Laboratory results published in article PMC6500773 (Psychopharmacology, 2018).
Like-named read-outs stand apart in the source and are kept apart here.

What was measured:
[1] = biological target: T1, hDAT (Homo sapiens, UniProt Q01959); assay: Inhibition of [3H]DA uptake by HEK-hDAT cells; format: cell-based; conditions: for Ratio DAT/SERT: 1/(DAT IC50) divided by 1/(SERT IC50), uptake, higher = more DAT selective
[2] = biological target: T2, hNET (Homo sapiens, UniProt P23975); assay: cell-based
[3] = biological target: T1, hDAT; assay: Inhibition of [125I]RTI-55 binding, HEK-hDAT membranes; conditions: for fold decrease in hDAT affinity: compared to pentedrone
[4] = biological target: T2, hNET; assay: biochemical; format: binding
[5] = biological target: T3, hSERT (Homo sapiens, UniProt P31645); assay: Inhibition of [3H]5-HT uptake by HEK-hSERT cells; format: cell-based; conditions: for selectivity for SERT over DAT (uptake potency): uptake inhibition potencies; for fold increase in hSERT uptake potency: compared to pentedrone
[6] = biological target: T3, hSERT; assay: Inhibition of [125I]RTI-55 binding, HEK-hSERT membranes
[7] = biological target: T3, hSERT; assay: Drug-induced release of preloaded [3H]5-HT from HEK-hSERT cells; format: cell-based; conditions: for releasing efficacy at hSERT: [3H]5-HT release; for % maximum release ± sem, hSERT [3H]5-HT: relative to maximal AUC induced by METH (0.3–1 mM)
[8] = biological target: T2, hNET; assay: Drug-induced release of preloaded [3H]NE from HEK-hNET cells; format: cell-based; conditions: for releasing efficacy at hNET: [3H]NE release; for EC50: read-out: Drug-induced release of [3H]neurotransmitter EC50 ± sem, hNET [3H]NE, HEK-hNET cells; for % maximum release ± sem, hNET [3H]NE: relative to maximal AUC induced by METH (0.3 or 1 μM)
[9] = biological target: T1, hDAT; assay: Drug-induced release of preloaded [3H]DA from HEK-hDAT cells; format: cell-based; conditions: for releasing efficacy at hDAT: [3H]DA release; for % maximum release ± sem, hDAT [3H]DA: relative to maximal AUC induced by METH (1 or 10 μM)
[10] = read-out: Inhibition of [3H]neurotransmitter uptake IC50 ± sem, hNET [3H]NE, HEK-hNET cells
[11] = read-out: Inhibition of [125I]RTI-55 binding Ki ± sem, hDAT, HEK-hDAT membranes
[12] = read-out: Inhibition of [125I]RTI-55 binding Ki ± sem, hNET, HEK-hNET membranes

T1 sequence (Q01959 whole entry): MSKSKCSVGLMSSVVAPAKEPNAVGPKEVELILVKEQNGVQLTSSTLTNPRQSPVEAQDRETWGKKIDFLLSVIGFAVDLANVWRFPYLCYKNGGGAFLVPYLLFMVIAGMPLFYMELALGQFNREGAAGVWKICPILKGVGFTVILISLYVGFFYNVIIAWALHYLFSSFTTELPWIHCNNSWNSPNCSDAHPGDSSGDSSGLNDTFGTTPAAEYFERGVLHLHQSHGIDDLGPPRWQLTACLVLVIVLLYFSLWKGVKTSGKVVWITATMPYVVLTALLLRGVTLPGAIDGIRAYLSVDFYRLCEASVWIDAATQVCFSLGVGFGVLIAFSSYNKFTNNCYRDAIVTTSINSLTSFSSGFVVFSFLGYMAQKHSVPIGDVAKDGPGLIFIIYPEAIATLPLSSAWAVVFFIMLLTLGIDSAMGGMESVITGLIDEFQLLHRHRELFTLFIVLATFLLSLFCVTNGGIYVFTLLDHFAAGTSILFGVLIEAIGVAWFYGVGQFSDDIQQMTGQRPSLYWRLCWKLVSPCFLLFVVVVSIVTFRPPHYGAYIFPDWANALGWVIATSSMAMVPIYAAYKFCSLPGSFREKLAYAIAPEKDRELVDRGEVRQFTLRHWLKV
T2 sequence (P23975 whole entry): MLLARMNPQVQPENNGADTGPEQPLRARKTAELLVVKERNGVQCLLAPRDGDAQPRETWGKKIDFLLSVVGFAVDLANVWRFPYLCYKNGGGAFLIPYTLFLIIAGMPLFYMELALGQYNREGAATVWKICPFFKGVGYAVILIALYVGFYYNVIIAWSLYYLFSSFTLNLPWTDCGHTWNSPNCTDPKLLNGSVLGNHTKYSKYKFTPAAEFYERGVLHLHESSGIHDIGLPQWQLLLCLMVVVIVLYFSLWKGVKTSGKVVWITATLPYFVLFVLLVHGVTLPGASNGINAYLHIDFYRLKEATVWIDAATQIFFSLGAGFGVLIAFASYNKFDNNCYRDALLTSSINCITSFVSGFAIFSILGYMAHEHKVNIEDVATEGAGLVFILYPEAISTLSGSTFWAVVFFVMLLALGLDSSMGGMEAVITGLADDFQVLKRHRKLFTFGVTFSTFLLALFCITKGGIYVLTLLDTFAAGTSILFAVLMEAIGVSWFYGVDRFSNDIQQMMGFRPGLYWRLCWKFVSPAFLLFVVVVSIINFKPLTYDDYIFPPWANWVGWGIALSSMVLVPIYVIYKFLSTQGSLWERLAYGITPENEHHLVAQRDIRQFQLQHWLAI
T3 sequence (P31645 whole entry): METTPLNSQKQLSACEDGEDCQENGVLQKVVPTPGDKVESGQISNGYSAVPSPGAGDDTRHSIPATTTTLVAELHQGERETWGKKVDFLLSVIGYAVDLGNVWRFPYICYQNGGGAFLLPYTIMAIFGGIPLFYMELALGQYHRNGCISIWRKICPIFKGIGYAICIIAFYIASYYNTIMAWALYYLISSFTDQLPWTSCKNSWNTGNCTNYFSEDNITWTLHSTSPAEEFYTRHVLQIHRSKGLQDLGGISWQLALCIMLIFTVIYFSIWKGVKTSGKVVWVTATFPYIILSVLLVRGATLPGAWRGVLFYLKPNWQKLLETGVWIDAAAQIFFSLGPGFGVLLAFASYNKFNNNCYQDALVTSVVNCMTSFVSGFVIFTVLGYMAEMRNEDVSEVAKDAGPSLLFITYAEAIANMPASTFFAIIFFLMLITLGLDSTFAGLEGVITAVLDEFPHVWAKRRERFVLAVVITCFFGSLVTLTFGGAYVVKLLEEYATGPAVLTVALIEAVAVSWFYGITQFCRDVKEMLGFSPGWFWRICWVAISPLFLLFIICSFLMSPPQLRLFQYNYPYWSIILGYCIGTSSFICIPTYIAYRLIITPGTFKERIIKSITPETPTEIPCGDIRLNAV

Row | SMILES | Ratio DAT/SERT [1] | IC50 [2, 10] | Ki [3, 11] | Ki [4, 12] | EC50 [8] | % maximum release ± sem, hNET [3H]NE [8] | % maximum release ± sem, hDAT [3H]DA [9] | % maximum release ± sem, hSERT [3H]5-HT [7] | further results
1 | CCCCC(C(=O)c1ccc2c(c1)OCO2)N1CCCC1 (stereo not drawn) [3,4-MDPHP, 3,4-methylenedioxy-α–pyrrolidinohexanophenone] | 160 |  |  |  |  |  |  |  | IC50 [1]: 8.4 ± 2.2 nM; IC50 [2]: 47 ± 10 nM; Ki [3]: 19.2 ± 5.1 nM; Ki [4]: 935 ± 93 nM; IC50 [5]: 1340 ± 410 nM; Ki [6]: 2430 ± 510 nM
2 | CNC(C)C(=O)c1cccc(C)c1 (stereo not drawn) [3-MMC, 3-methylmethcathinone] | 10 | 84 ± 23 nM | 6330 ± 720 nM | 2850 ± 720 nM |  |  |  |  | fold higher hSERT uptake potency ([5]; compared to MCAT): 6.5 fold; fold higher hSERT affinity ([6]; compared to MCAT): ~ 40 fold
3 | CCNC(C)C(=O)c1ccc(Cl)cc1 (stereo not drawn) [4-CEC, 4-Cl-ethcathinone] | 0.39 | 1720 ± 240 nM | 4170 ± 530 nM | 16300 ± 5700 nM | > 100000 nM | 5.9 ± 2.5% | 1.17 ± 0.05% |  | selectivity for SERT over DAT (uptake potency) [5]: 3 fold; releasing efficacy at hSERT [7]: full releasing efficacy; releasing efficacy at hNET [8]: minimal releasing efficacy; releasing efficacy at hDAT [9]: minimal releasing efficacy
4 | CCCC(NC)C(=O)c1ccc(Cl)cc1 (stereo not drawn) [4-CPD, 4-chloro pentedrone] | 1.3 | 470 ± 140 nM | 1620 ± 400 nM | 4540 ± 890 nM |  |  |  |  | fold decrease in hDAT affinity [3]: 4- to 5 fold; fold increase in hSERT uptake potency [5]: 15- to 17 fold
5 | CC(C(=O)c1ccc(Cl)cc1)N1CCCC1 (stereo not drawn) [4-Cl-α-PPP, 4’-chloro-α-pyrrolidinopropiophenone] | 8.8 |  |  |  |  |  |  |  | IC50 [1]: 730 ± 130 nM; IC50 [2]: 1420 ± 380 nM; Ki [3]: 1300 ± 450 nM; Ki [4]: 3580 ± 920 nM; IC50 [5]: 6400 ± 1500 nM; Ki [6]: 12700 ± 3200 nM
6 | CCCC(C(=O)c1ccc(Cl)cc1)N1CCCC1 (stereo not drawn) [4-Cl-α-PVP, 4’-chloro-α–pyrrolidinopentiophenone] | 83 | 29.1 ± 6.7 nM | 61 ± 15 nM | 281 ± 16 nM | > 10000 nM | 9.4 ± 6.0% | <1% | <1% | releasing efficacy at hSERT [7]: minimal to no releasing efficacy; releasing efficacy at hNET [8]: minimal to no releasing efficacy; releasing efficacy at hDAT [9]: minimal to no releasing efficacy
7 | CCCCC(C(=O)c1ccc(F)cc1)N1CCCC1 (stereo not drawn) [4-F-α-PHP, 4’-fluoro-α–pyrrolidinohexanophenone] | 240 |  |  |  |  |  |  |  | IC50 [1]: 38.2 ± 4.4 nM; IC50 [2]: 218 ± 29 nM; Ki [3]: 122 ± 27 nM; Ki [4]: 1730 ± 250 nM; IC50 [5]: 9110 ± 540 nM; Ki [6]: 8010 ± 840 nM
8 | CCCC(C(=O)c1ccc(F)cc1)N1CCCC1 (stereo not drawn) [4-F-α-PVP, 4-fluoro-α–pyrrolidinopentiophenone] | 360 |  | 376 ± 70 nM |  |  |  |  |  | IC50 ([2]; read-out: Inhibition of [3H]neurotransmitter uptake IC50 ± sem, hNET [3H]NE): 118 nM; Ki ([4]; read-out: Inhibition of [125I]RTI-55 binding Ki ± sem, hNET): 1100 nM
9 | CCCC(NC)C(=O)c1ccc(C)cc1 (stereo not drawn) [4-MPD, 4-methyl pentedrone] |  | 307 ± 61 nM | 1450 ± 310 nM | 3390 ± 480 nM |  |  |  |  | fold decrease in hDAT affinity [3]: 4- to 5 fold; fold increase in hSERT uptake potency [5]: 15- to 17 fold
10 | CC(N)Cc1ccc2ccoc2c1 (stereo not drawn) [6-APB, α-methyl-6-benzofuranethanamine] | 2.4 | 19.8 ± 4.4 nM | 1040 ± 160 nM | 2450 ± 200 nM | 51 ± 12 nM | 69 ± 12% | 68.2 ± 9.0% | 119 ± 16% | releasing efficacy at hSERT [7]: fully efficacious releaser
11 | CCNC(C)Cc1ccc2ccoc2c1 (stereo not drawn) [6-EAPB, N-ethyl-α-methyl-6-benzofuranethanamine] | 1.4 | 42 ± 14 nM | 89 ± 22 nM | 772 ± 44 nM |  |  |  |  | 
12 | CNC(C)Cc1ccc2ccoc2c1 (stereo not drawn) [6-MAPB, N,α-dimethyl-6-benzofuranethanamine] | 9.5 | 33.1 ± 2 nM | 599 ± 9.9 nM | 1480 ± 270 nM | 640 ± 210 nM | 60 ± 11% | 40.6 ± 8.7% | 107.0 ± 2.3% | releasing efficacy at hSERT [7]: fully efficacious
13 | CCC(C(=O)c1ccc2c(c1)OCO2)N(C)C (stereo not drawn) [Dibutylone, bk-DMBDB] | >32 | 923 ± 44 nM | 581 ± 76 nM | 8400 ± 2100 nM |  |  |  |  | 
14 | CC(C(=O)c1ccc2c(c1)OCO2)N(C)C (stereo not drawn) [Dimethylone, bk-MDDMA] | >4.1 | 4200 ± 880 nM | 4210 ± 270 nM | > 10000 nM | > 10000 nM | 9.9 ± 2.2% | <1% | <1% | 
15 | CNC(C)C(=O)c1ccccc1 (stereo not drawn) [MCAT, methcathinone, reference compound] | 130 | 45.2 ± 4.2 nM | 7520 ± 990 nM | 5960 ± 610 nM | 400 ± 120 nM | 75 ± 10% | 79.0 ± 3.2% | 65.0 ± 0.6% | fold lower release potency at SERT ([7]; compared to release potency at NET and DAT): 50 fold
16 | CCCC(NCC)C(=O)c1ccc2c(c1)OCO2 (stereo not drawn) [N-Et pentylone, N-ethyl pentylone] | 8.4 | 114 ± 29 nM | 102 ± 15 nM | 2380 ± 620 nM |  | 15.6 ± 8.4% | <1% | 7.2 ± 1.4% | fold increase in hDAT/hSERT selectivity ([1]; compared to pentylone): ~ 2 fold
17 | CCCCC(NCC)C(=O)c1ccccc1 (stereo not drawn) [N-Et-Hexedrone, α-ethylaminohexanophenone] | 100 | 97.8 ± 8.3 nM | 171 ± 38 nM | 1260 ± 43 nM |  |  |  |  | 
18 | CCCNC(CCC)C(=O)c1ccccc1 (stereo not drawn) [N-propyl pentedrone, α-propylaminopentiophenone] | 330 | 306 ± 79 nM | 389 ± 67 nM | 3760 ± 820 nM |  |  |  |  | 
19 | CCCNC(C)C(=O)c1ccc2c(c1)OCO2 (stereo not drawn) [PRONE, 3,4-methylenedioxy-N-propylcathinone] | 0.95 | 6040 ± 890 nM | 6800 ± 1900 nM | 22500 ± 8500 nM |  |  |  |  | 
20 | CCCCCCC(C(=O)c1ccccc1)N1CCCC1 (stereo not drawn) [PV9, 1-phenyl-2-(pyrrolidin-1-yl)octan-1-one] | >150 |  |  |  |  |  |  |  | IC50 [1]: 50.2 ± 6.6 nM; Ki [3]: 18 ± 3.7 nM; Ki [4]: 468 ± 33 nM; IC50 [5]: > 7400 nM; Ki [6]: 2860 ± 430 nM
21 | CCCC(C(=O)c1ccc2c(c1)CCCC2)N1CCCC1 (stereo not drawn) [TH-PVP, 3’,4’-tetramethylene-α-pyrrolidinovalerophenone] | 0.087 | 2130 ± 81 nM | 3090 ± 300 nM | 6950 ± 340 nM | > 10000 nM | <1% | <1% | <1% | selectivity for SERT over DAT (uptake potency) [5]: 12 fold; releasing efficacy at hSERT [7]: minimal to no releasing efficacy; releasing efficacy at hNET [8]: minimal to no releasing efficacy; releasing efficacy at hDAT [9]: minimal to no releasing efficacy
22 | CCCC(C(=O)c1ccc2c(c1)OCO2)N(C)C (stereo not drawn) [bk-DMBDP, N,N-dimethylpentylone] | 11 | 212 ± 68 nM | 354 ± 73 nM | 2000 ± 140 nM |  |  |  |  | 
23 | CCCC(NCC)C(=O)c1ccccc1 (stereo not drawn) [α-EPP, α-ethylaminopentiophenone] | 64 | 101 ± 24 nM | 182 ± 22 nM | 700 ± 180 nM |  |  |  |  | 
